Results reported in ChEMBL document CHEMBL3045080, “Baseline susceptibility to chlorantraniliprole of Brazilian populations of Plutella xylostella” (2012).

Key:
Assay type in all cases: functional
Plutella xylostella [1] = assay: Insecticidal activity against Plutella xylostella (diamondback moth) CG1 using leaf dip immersion method of compound application
Plutella xylostella [2] = assay: Insecticidal activity against Plutella xylostella (diamondback moth) Brazilian field isolates
Plutella xylostella [3] = assay: Insecticidal activity against Plutella xylostella (diamondback moth) CG1 using potter tower method of compound application
Plutella xylostella [4] = assay: Insecticidal activity against Plutella xylostella (diamondback moth) CG1 using topical method of compound application

CNC(=O)c1cc(Cl)cc(C)c1NC(=O)c1cc(Br)nn1-c1ncccc1Cl [CHLORANTRANILIPROLE]
LC50 (Plutella xylostella [1]): 0.02 mgAi/L | LC95 (Plutella xylostella [1]): 0.046 mgAi/L | LC99 (Plutella xylostella [1]): 0.066 mgAi/L | LC50 (Plutella xylostella [2]): 0.025 mgAi/L | LC99 (Plutella xylostella [2]): 0.212 mgAi/L | LC50 (Plutella xylostella [3]): 0.018 mgAi/L | LC95 (Plutella xylostella [3]): 0.073 mgAi/L | LC99 (Plutella xylostella [3]): 0.13 mgAi/L | LC50 (Plutella xylostella [4]): 1.422 mgAi/L | LC95 (Plutella xylostella [4]): 35.13 mgAi/L | LC99 (Plutella xylostella [4]): 132.65 mgAi/L
